Common to all, as to test: Growth inhibition GI50 in vitro (CCK8/MTT, 72 h)
Assay [1] deals with A549 (EGFR WT). Format: cell-based, human. The settings on record: Homo sapiens, A549.
In assay [2] the test system is PC-9 (EGFR dE746-A750). The class given is cell-based, human. The note with it: Homo sapiens.
Assay [3] relates to H1975 (EGFR L858R/T790M). The class given is cell-based, human. The note with it: Homo sapiens, NCI-H1975.
Assay [4] has as its system H292 (EGFR WT). The class given is cell-based. The note with it: Homo sapiens, NCI-H292; Table 15; 1000 nM to 0.03 nM serial dilution; read-out: GI50 H292 (EGFR WT). An excerpt:
EGFR wild type cell lines: human epidermal cancer cell line A431 (EGFR WT, amplification and high expression, from Shanghai Cell Bank of Chinese Academy of Sciences and ATCC), NSCLC cell lines NCI-H460 (EGFR WT, Kras G61H and PI3KCA E545K mutants, ATCC) and NCI-H1299 (EGFR WT, ATCC), melanoma cell line A375 (EGFR WT and BRAF V600E mutant, from Shanghai Cell Bank of Chinese Academy of Sciences, ATCC), human lung cancer cell line NCI-H292 (EGFR WT, from human lung mucoepidermoid carcinoma/lymphatic metastasis, purchased from Shanghai Cell Bank of Chinese Academy of Sciences) were cultured with 1×RPMI1640 complete medium which was supplement with 10% FBS. NSCLC cell line A549 (EGFR WT and Kras G12S mutant, from Shanghai Cell Bank of Chinese Academy of Sciences) was cultured with 1×Ham'S F12K complete medium which was supplement with 10% FBS, 1% double-antibiotics and 2 mM glutamine.
(§1) The suspension cells were collected by centrifugation. The supernatant was discard and the cell pellet was resuspended and counted. Different cell concentrations (5˜10×10^4 cells/mL) were prepared according to the growth cycle of each cell line and then seeded on a 96-well plate (Corning), 100 μL/well. The cells were incubated over night at 37° C., 5% CO2. The compounds were added to the cells on the second day with 2 wells in parallel. The final concentration of organic solvent shall not exceed 1%. The cells were continually incubated for 72 h, and then subjected to MTT assay.
(§2) The present compounds and the reference compounds were dissolved with DMSO (Sigma), respectively. […] The storage concentration of compounds was 10 mM and kept at −20° C. They were diluted by 2 times or 10 times with serial dilution before using.
(§3) Dojindo CCK8 reagent kit was used as MTT assay. […] FC meter was used as microplate reader.
Adherent cell culture medium was discard and immediately replaced with fresh prepared medium which contains 10% CCK8 reagent (100 μL/well). For the suspension cells, CCK8 was directly added to 10% of the final concentration. The cells were continually incubated for 1˜4 h. When the color of control wells turned to dark yellow, the absorption value was measured at OD450 nm. The cell growth rate was calculated according to the following formula: cell growth rate (%)=100*(T−T0)/(C−T0), T=optical density of drug treatment cell well—optical density of blank control well; T0=optical density of cell well before drug treatment—optical density of blank control well; C=optical density of cell well of solvent control group—optical density of blank control well. […] The experiment was independently repeated 1˜3 times, and subject to biological statistical analysis.

Assay [5] concerns N87 (HER2 Amp). Format: cell-based, human. The note with it: Homo sapiens.
In assay [6] the test system is NCI-H1781 (HER2 exon 20 G776VC mutation). Format: cell-based. The settings on record: Homo sapiens, NCI-H1781; Table 16; 1000 nM to 0.03 nM serial dilution; read-out: GI50 H1781 (HER2 G776VC). The method, then:
Human lung adenocarcinoma cell line Calu-3 (ATCC) was cultured with 1×MEM complete medium (10% FBS, 1% double-antibiotics, 1% NEAA (Gibco), 2 mM glutamine and 1 mM of sodium pyruvate). Human breast cancer cell line SK-BR-3 was cultured with McCOY'S5A complete medium (10% FBS). Human colon cancer cell line SNU1040 (HER2 V777M positive) (ATCC) and human bronchoalveolar adenocarcinoma cell line NCI-H1781 (expressing HER2 exon 20 G776VC mutation) (ATCC) were cultured with 1×RPMI1640 complete medium (10% FBS), respectively.
as §1, with “Adherent cells were digested with 0.25% pancreatin-EDTA (Gibco). The suspension” for “The suspension”
as §2, §3
Adherent cell culture medium was discard and immediately replaced with fresh prepared medium which contains 10% CCK8 reagent (100 μL/well). For the suspension cells, CCK8 was directly added to 10% of the final concentration. The cells were continually incubated for 1˜4 h. When the color of control wells turned to dark yellow, the absorption value was measured at OD450 nm. The cell growth rate was calculated according to the following formula: cell growth rate (%)=100*(T−T0)/(C−T0), T=optical density of drug treatment cell well—optical density of blank control well; T0=optical density of cell well before drug treatment—optical density of blank control well; C=optical density of cell well of solvent control group—optical density of blank control well. The concentration value of 50% inhibition of cell growth (GI50) was calculated. The experiment was independently repeated 1˜3 times, and subject to biological statistical analysis.
Furthermore, the present compounds (99, 136, 205, 211, 212, 213, 216, 229, 230, 231, 232, 233 and 236) were selected to carry out growth inhibition test for HER2/ERBB2 gene amplified or high expressed or mutant tumor cells. Afatinib and AZD9291 were used for references as second- and third-generation inhibitors of EGFR.
Each compound started at 1000 nM as an initial concentration and was diluted by 2 times with serial dilution to 0.03 nM. The GI50 value of each compound was calculated according to Test Example 1.3.

The mark [7] stands for this setting: Table 13, 72 h, read-out: Range of GI50 A549 (EGFR WT).
Setting [8] is: Table 15, 1000 nM to 0.03 nM serial dilution, read-out: GI50 A549 (EGFR WT).
The mark [9] stands for this setting: Table 13, 72 h, read-out: Range of GI50 PC-9 (EGFR dE746-A750).
[10] abbreviates: Table 15, 1000 nM to 0.03 nM serial dilution, read-out: GI50 PC-9 (EGFR dE746-A750).
[11] abbreviates: Table 13, 72 h, read-out: Range of GI50 H1975 (EGFR L858R/T790M).
Setting [12] is: Table 15, 1000 nM to 0.03 nM serial dilution, read-out: GI50 H1975 (EGFR L858R/T790M).
The mark [13] stands for this setting: Table 13, 72 h, read-out: Range of GI50 N87 (HER2 Amp).
[14] abbreviates: Table 16, 1000 nM to 0.03 nM serial dilution, read-out: GI50 N87 (HER2 amp).

Molecules are shown by their SMILES. Where two headings read alike, the source gives them in different places. A value given as a limit tells only on which side of the number the result lay.

`C=CC(=O)Nc1cc(Nc2nccc(-n3ccc4c(OC)cc(F)cc43)n2)c(OC)cc1N(C)CCN(C)C` [Compound 212, N-(5-(4-(4-methoxyl-6-fluoro-1H-indol-1-yl)-pyrimidin-2-ylamino)-2-(2-(dimethylamino-ethyl)-methyl-amino)-4-methoxyl-phenyl)-acrylamide]: the GI50 in assay [1] (setting [7]) is greater than 1000 nM; in assay [1] (setting [8]), greater than 1000 nM; in assay [2] (setting [9]), less than 10 nM; in assay [2] (setting [10]), 6.82 nM; in assay [3] (setting [11]) it was less than 10 nM; in assay [3] (setting [12]), 8.56 nM. Moreover, the GI50 in assay [4] was greater than 1000 nM; in assay [5] (setting [13]), less than 10 nM; in assay [5] (setting [14]), 2.67 nM; in assay [6], 15.6 nM.
Consider `C=CC(=O)Nc1cc(Nc2nccc(-n3ccc4c(OC)cc(Br)cc43)n2)c(OC)cc1N(C)CCN(C)C` [Compound 211, N-(5-(4-(4-methoxyl-6-bromo-1H-indol-1-yl)-pyrimidin-2-ylamino)-2-(2-(dimethylamino-ethyl)-methyl-amino)-4-methoxyl-phenyl)-acrylamide], for which the GI50 is greater than 1000 nM in assay [1] (setting [7]); greater than 1000 nM in assay [1] (setting [8]); less than 10 nM in assay [2] (setting [9]); 7.89 nM in assay [2] (setting [10]); 10 to 100 nM in assay [3] (setting [11]); 19.6 nM in assay [3] (setting [12]). Besides, the GI50 in assay [4] is greater than 1000 nM; in assay [5] (setting [13]) it was less than 10 nM; in assay [5] (setting [14]) it was 6.76 nM; in assay [6] it was 31.5 nM.
Consider `C=CC(=O)Nc1cc(Nc2nccc(-n3ccc4c(OC)cc(Cl)cc43)n2)c(OC)cc1N(C)CCN(C)C` [Compound 213], for which the GI50 in assay [1] (setting [7]) was greater than 1000 nM; in assay [1] (setting [8]) it was greater than 1000 nM; in assay [2] (setting [9]), less than 10 nM; in assay [2] (setting [10]) it was 7.83 nM; in assay [3] (setting [11]) it was less than 10 nM; in assay [3] (setting [12]), 9.8 nM. Also, the GI50 is greater than 1000 nM in assay [4], less than 10 nM in assay [5] (setting [13]), 1.95 nM in assay [5] (setting [14]) and 15.6 nM in assay [6].

Values taken from patent publication US10342796B2, “Acrylanilide derivative, preparation method, and applications thereof in pharmacy” (Ancureall Pharmaceutical (Shanghai) Co., Ltd., priority 2015, dated 2019).
